Where “and” joins values, the source holds several entries; their conditions need not be identical. Equal entries are not always repeated.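 Five concentrations, 48 hours, 96-well plates. At the GI50, growth is halved. At the TGI there is no net growth.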
Legend:
Experiment in all cases: growth of human tumour cells (NCI), 48 h
[1] = tested on: HS 578T breast
[2] = tested on: COLO 205 colon
[3] = tested on: OVCAR-4 ovarian
[4] = tested on: HCC-2998 colon
[5] = tested on: T-47D breast
[6] = tested on: SF-539 CNS
[7] = tested on: OVCAR-8 ovarian
[8] = tested on: LOX IMVI melanoma
[9] = tested on: SF-295 CNS
[10] = tested on: NCI-H460 lung

Row | SMILES | GI50 [1] | TGI [1] | GI50 [2] | TGI [2] | GI50 [3] | TGI [3] | GI50 [4] | TGI [4] | GI50 [5] | TGI [5] | GI50 [6] | TGI [6] | GI50 [7] | TGI [7] | GI50 [8] | TGI [8] | GI50 [9] | TGI [9] | GI50 [10] | TGI [10]
1 | CCN1C(=O)N(CC)C2C1NN=c1s/c(=C3\C(=O)N(CC(C)(C)C)c4ccccc43)c(=O)n12 (stereo not drawn) | 2.66 µM | 19.7 µM | 3.31 µM | 13.5 µM | 7.77 µM | 66.6 µM | 3.4 µM | 13.8 µM | 5.71 µM | 53.7 µM | 2.95 µM | 11.1 µM | 4.67 µM | > 100 µM | 3.38 µM | 15.4 µM | 2.84 µM | 12.6 µM | 3.39 µM | 13.4 µM
2 | CCCCCOc1ccc(/C=N/Nc2cc(C)nc3ccc(Br)cc23)cc1 | 2.33 µM | 5.64 µM | 1.96 µM | 3.72 µM | 1.76 µM | 3.27 µM | 2.07 µM | 3.8 µM | 1.81 µM | 3.89 µM | 1.76 µM | 3.23 µM | 2.13 µM | 4.73 µM | 1.86 µM | 3.64 µM | 1.81 µM | 3.5 µM | 1.94 µM | 3.7 µM
3 | c1ccc2c(c1)c1c(c3ccccc32)CN2CCCC2C1 (stereo not drawn) |  | 13.8 µM |  | 13.8 µM |  | > 100 µM |  | 17.1 µM |  | > 100 µM |  | 10.7 µM |  | 14.5 µM |  | 9.46 µM |  | > 35.5 µM |  | > 100 µM
4 | COCC1(CO)C(=O)C2CCN1CC2 (stereo not drawn) | > 67.5 µM | > 100 µM | 16.8 µM | 35.8 µM | 16.9 µM | 40.4 µM | > 100 µM | > 100 µM | 9.55 µM | 34.3 µM | > 40.7 µM | > 55.7 µM | 34.6 µM | > 80.3 µM | 18.2 µM | 37.2 µM | > 100 µM | > 100 µM | > 59 µM | > 100 µM
5 | O=C(Nc1ccc(-n2ccc3c(NC(=O)c4ccccc4)nccc32)cc1)Nc1ccc(Cl)c(Cl)c1 | 0.791 µM | 3.47 µM | 1.42 µM | 3.27 µM | 1.55 µM | 3.86 µM | 1.47 µM | 3.65 µM | 2.03 µM | 5.33 µM | 0.557 µM | 2.41 µM | 1.26 µM | 3.7 µM | 0.503 µM | 2.28 µM | 0.877 µM | 3.18 µM | 0.358 µM | 1.78 µM
6 | C1=C\COCc2cc(ccc2OCCN2CCCC2)Nc2nccc(n2)-c2cccc(c2)COC/1 | 1.18 µM | 5.78 µM | 1.35 µM | 4.29 µM | 3.79 µM | 6.56 µM | 2.3 µM | 5.37 µM | 1.37 µM | 5.12 µM | 3.11 µM | 5.71 µM | 3.22 µM | 7.32 µM | 0.847 µM | 2.88 µM | 3.34 µM | 5.94 µM | 1.39 µM | 5.12 µM
7 | O=C(c1ccc(/C=C/c2n[nH]c3ccccc23)cc1)N1CCNCC1 | 1.93 µM and 4.22 µM | 7.36 µM and 31.7 µM | 3.96 µM and 0.598 µM | > 10 µM and 5.9 µM | > 10 µM and 3.82 µM | > 10 µM and 26 µM | > 10 µM and 12.1 µM | > 10 µM and 34.1 µM | 19.5 µM | 47.1 µM | 2.18 µM and 1.83 µM | 6.74 µM and 9.92 µM | > 10 µM and 14.1 µM | > 10 µM and 34.4 µM | 1.76 µM and 2.34 µM | 3.26 µM and 12.2 µM | 3.15 µM and 5.28 µM | > 10 µM and 21.9 µM | 1.87 µM and 1.09 µM | 3.58 µM and 12.7 µM
8 | N=C(N)c1ccc2nc(-c3cc(CC(=O)N[C@@H](CC(=O)O)C(=O)O)cc(-c4cc(S(N)(=O)=O)ccc4O)c3O)[nH]c2c1 | > 100 µM | > 100 µM | > 100 µM | > 100 µM | > 100 µM | > 100 µM | > 100 µM | > 100 µM | > 100 µM | > 100 µM | > 100 µM | > 100 µM | > 100 µM | > 100 µM | > 100 µM | > 100 µM | > 100 µM | > 100 µM | > 100 µM | > 100 µM
9 | CC(=O)Oc1ccccc1C(=O)Nc1ncc([N+](=O)[O-])s1 | 1.94 µM | 9.97 µM and > 37.5 µM | 1.83 µM |  | 2.05 µM | 13.8 µM and > 100 µM | 2.03 µM | 13.9 µM and > 100 µM | 2.88 µM | > 26.6 µM and 60.3 µM | 2.9 µM | 20.6 µM and > 100 µM | 2.73 µM | 25.1 µM and > 100 µM | 2.74 µM | 14.5 µM and > 100 µM | 1.91 µM |  | 2.76 µM | 12.2 µM and > 100 µM
10 | Cc1cc(C)c(NC(=O)c2sc3nc4c(cc3c2N)CN(Cc2ccccc2)CC4)c(C)c1 | 2.66 µM | 65.9 µM | 2.98 µM | 10.1 µM | 6.72 µM | > 100 µM | 5.33 µM | 38.4 µM | 2.62 µM | > 100 µM | 2.44 µM | 7.79 µM | 4.72 µM | > 100 µM | 5.01 µM | 18.1 µM | 1.89 µM | 64.7 µM | 3.29 µM | 16.3 µM
11 | N#Cc1c(N/N=C/c2ccc(Cl)cc2Cl)nc(N)nc1N1CCCC1 | 2.4 µM | 7.01 µM | 88.1 µM | > 100 µM | 14.8 µM | > 100 µM | > 100 µM | > 100 µM | 88.4 µM | > 100 µM | 22.8 µM | > 100 µM | 27.5 µM | > 100 µM | 31.8 µM | > 100 µM | 18.8 µM | > 100 µM | 63.9 µM | > 100 µM
12 | O=C1NC(=O)C(c2cccc([N+](=O)[O-])c2)=C1Nc1cc(Cl)c(O)c(Cl)c1 | 7.03 µM | > 25 µM | > 25 µM | > 25 µM | > 25 µM | > 25 µM | > 25 µM | > 25 µM | > 25 µM | > 25 µM | > 25 µM | > 25 µM | > 25 µM | > 25 µM | 24.3 µM | > 25 µM | > 16.3 µM | > 25 µM | > 23.4 µM | > 25 µM
13 | CC(C)(S)C(N)C(=O)O (stereo not drawn) |  | > 100 µM | 1180 µM | 2880 µM and > 100 µM | > 5000 µM | > 5000 µM | 1450 µM | 4340 µM | 1170 µM | 2680 µM and > 100 µM | 1420 µM | 4370 µM and > 100 µM | 3450 µM | > 5000 µM | 1590 µM | > 5000 µM | 963 µM | 3660 µM and > 100 µM | 937 µM | 2730 µM and > 100 µM
14 | CC[C@H]1CN2CCc3cc(OC)c(OC)cc3[C@@H]2C[C@@H]1C[C@H]1NCCc2c1[nH]c1ccc(O)cc21 |  | 0.0653 µM and 0.0327 µM | 0.019 µM and 0.0187 µM | 0.0339 µM and 0.0347 µM and < 0.0117 µM | 0.0138 µM | 0.0443 µM and 0.0436 µM and < 0.0124 µM | 0.0229 µM and 0.0287 µM | 0.0568 µM and 0.0856 µM and 0.0758 µM | 0.0233 µM | 0.0897 µM and 0.0583 µM | 0.0211 µM and 0.0232 µM | 0.0476 µM and 0.0513 µM and 0.0408 µM | 0.0323 µM and 0.0377 µM |  | 0.00434 µM and 0.0207 µM | 0.0223 µM and 0.0902 µM and < 0.0107 µM | 0.0323 µM and 0.246 µM |  | 0.0252 µM and 0.0398 µM | 0.0912 µM and 0.395 µM and 0.0422 µM
15 | COc1cc2c3c(n(CCCOC(=O)C(F)(F)F)c(=O)c2cc1OC)-c1cc2c(cc1C3=O)OCO2 | 52.7 µM | > 100 µM | 0.519 µM | > 100 µM | 0.208 µM | > 100 µM | 0.131 µM | 0.539 µM |  | > 28.2 µM | < 0.01 µM | 0.0699 µM |  | 0.664 µM | < 0.01 µM | 0.0371 µM | < 0.01 µM | 0.721 µM | 3 µM | > 100 µM
16 | Cc1[nH]c(/C=C2\C(=O)Nc3ccccc32)c(C)c1CCC(=O)O | 9.45 µM | 51.9 µM and > 100 µM |  | 43 µM and 45.9 µM |  | > 100 µM |  | > 100 µM |  | > 100 µM | 12.3 µM | 42.2 µM | 34.7 µM | > 100 µM | 23.1 µM | 75.9 µM and 89.2 µM | 24.9 µM | > 100 µM | 21.3 µM | 57 µM and > 100 µM
17 | CCCOc1ccc2sc(NC(=O)OC)nc2c1 | 3.48 µM | > 100 µM | 0.838 µM | 13.5 µM | > 100 µM | > 100 µM | 24.5 µM | > 100 µM | 2.94 µM | > 100 µM | 2.91 µM | > 100 µM | 5 µM | > 100 µM | 5.66 µM | > 100 µM | 2.69 µM | > 100 µM | 3.11 µM | > 100 µM
18 | CSc1ccc2c(c1)C(=O)c1c-2n(CCCBr)c(=O)c2cc([N+](=O)[O-])ccc12 | > 100 µM | > 100 µM | 17.8 µM | > 100 µM | > 100 µM | > 100 µM | 74.4 µM | > 100 µM | 17.8 µM | > 100 µM | 4.59 µM | > 100 µM | 27.6 µM | > 100 µM | 2.11 µM | 41.5 µM | 1.04 µM | > 100 µM | 0.547 µM | > 100 µM
19 | Cn1cc(C2=C(c3cccc(Br)c3)C(=O)NC2=O)c2ccccc21 | 3.92 µM | > 25 µM | 13.9 µM | > 25 µM | 12.6 µM | > 25 µM | > 16 µM | > 25 µM | 8.11 µM | > 25 µM | 12.5 µM | > 25 µM | 12.6 µM | > 25 µM | 12 µM | > 25 µM | 12.9 µM | > 25 µM | 16.9 µM | > 25 µM

Source: PubChem BioAssay (NCI)
